# B1: 3xABRC321: synthetic ABA-inducible promoter, three tandem copies of ABRC321 driving GUS (nucleic acid)
# DNA: GGTACCGCAACGCGTGTCCTCCCTACGTGGCGGCTCGAGATTGCCACCGGGGTACCGCAACGCGTGTCCTCCCTACGTGGCGGCTCGAGATTGCCACCGGGGTACCGCAACGCGTGTCCTCCCTACGTGGCGGCTCGAGATTGCCACCGGTCTAGA
# modifications: Synthetic prompter 3XABRC321
# notes: synthetic ABA-inducible promoter, three tandem copies of ABRC321 driving GUS
# B2: 2xABRC321: synthetic ABA-inducible promoter, two tandem copies of ABRC321 driving GUS (nucleic acid)
# DNA: GGTACCGCAACGCGTGTCCTCCCTACGTGGCGGCTCGAGATTGCCACCGGGGTACCGCAACGCGTGTCCTCCCTACGTGGCGGCTCGAGATTGCCACCGGTCTAGA
# modifications: synthetic promoter element in GUS reporter construct, further chemistry not given here
# Assays:
# rice half seeds = experiment: rice half-seed transient expression assay, GUS activity; type: cell-based; settings: rice half seeds transfected by particle bombardment, with vs without 10 μM ABA for 16 h
# Procedure: (§1) (A) Three copies of ABRC321 confer high ABA inducibility in a rice half-seed transient expression assay. Rice half seeds were transfected with plasmids shown in FIG. 1 by particle bombardment, and incubated with (+) or without (−) 10 μM ABA for 16 h, and GUS activity was analyzed. (B) Three copies of ABRC321 confer high ABA inducibility in leaves and roots in transgenic rice. Constructs shown in FIG. 1 were introduced into the rice genome. Leaves and roots of 10-day-old T2 seedlings of four transgenic lines were collected and incubated in water with (+) or without (−) 10 μM ABA for 16 h, and GUS activity was analyzed. Numbers above bars indicate fold induction of GUS activity by ABA. Error bars represent SD (n=3).
# Two 56-bp complementary oligonucleotides, containing the CE3 and A2 elements from the HVA1 promoter and the CE1 element from the HVA22 promoter (Shen Q, Zhang P, & Ho T H (1996) Plant Cell 8(7):1107-1119) and restriction sites KpnI, XhoI and XbaI were synthesized, annealed, and designated as ABRC321 (FIG. 1A). ABRC321 was self-ligated in two or three copies in correct orientations. For expression of GUS under the control of ABRC321, 1-3 copies ABRC321 was inserted into the XbaI site in MP64, so that the ABRC321 was fused upstream of the barley Amy64 minimal promoter, generating constructs 1xABRC321-GUS, 2x-ABRC321-GUS and 3xABRC321-GUS (FIG. 1(B)). For expression of HVA1 under the control of 3xABRC321, GUS cDNA in construct 3xABRC321-GUS was replaced with HVA1 cDNA, generating construct 3xABRC321-HVA1 (FIG. 1(C)) (SEQ ID NO: 6).
# In this study, we used a […] promoter, ABRC321, to express recombinant HVA1 (rHVA1) in plants. […] ABRC321 was generated by fusion of coupling element CE3 and ABRE2 (A2) from the HVA1 ABRC3 and coupling element CE1 from the HVA22 ABRC1 (Shen Q, Zhang P, & Ho T H (1996) Plant Cell 8(7):1107-1119). The reporter gene GUS was fused downstream of 1-3 tandem repeats of ABRC321 and the Amy64 minimal promoter.
# PIN genes = experiment: quantitative real-time RT-PCR of auxin transporter genes in roots; type: in vivo, rice; settings: Yoshida solution with or without 0.2 μM ABA for 14 days, root RNA
# Procedure: Four-day-old seedlings of Tainung 67 (T) transgenic lines were germinated on MS medium for four days and transfer to full strength Yoshida solution with or without 0.2 μM ABA for 14 days. Total RNA was extracted from roots and subjected to quantitative real-time RT-PCR.
# To determine whether the promotion of root growth by HVA1 in transgenic rice involves the auxin (IAA)-dependent pathway, the expression of various genes involved in auxin transport and signaling were determined. […] The rice PIN family is encoded by 12 genes, with expression of each being spatially and temporally regulated (Wang J R, et al. (2009) Mol Plant 2(4):823-831).
# Tainung 67 seedlings = experiment: root growth of rice seedlings on half-strength MS medium containing ABA and/or NPA; type: in vivo, Oryza sativa L. cv Tainung 67; set-up: lateral root morphology: dose or concentration left out as unconfirmed
# From the text: Three-day-old seedlings of Tainung 67 (T) transgenic lines were transferred to half-strength MS medium without sugar but containing ABA or sorbitol, and root morphology was examined. (A) Morphology of various branch roots.
# Three-day-old seedlings of Tainung 67 (T) transgenic lines that containing seminal roots only were transferred to half-strength MS (½) medium without sugar but containing ABA and/or NPA for 11 days, and root morphology was examined. […] The dots indicate starting points of root growth after transferring to MS medium containing ABA and/or NPA.
# Rice cultivars Oryza sativa L. cv Tainung 67 and Oryza sativa L. cv Kitaake were used for all experiments. Plasmid was introduced into Agrobacerium tumefaciens strain EHA101 and rice transformation was performed as described (Chen P-W, et al. (2002) J Biol Chem 277:13641-13649). Homozygous transgenic lines were used in all experiments. For observation of root growth, transgenic rice seeds were germinated on the surface of half-strength MS medium without sugar but with or without ABA. For hydroponic culture, Yoshida solution was used. Seedlings were normally grown in 28′C incubator with 12 hr daily light.
# Rice branch roots could be classified into four types: seminal root, also called radical, the first root grows during germination; crown roots, roots emerge from the node of coleoptile; adventitious roots, roots differentiate from the nodes of main stem and tillers, lateral roots, roots branch from above three types of roots and can bear additional large or small lateral roots until the fifth order of branching. The number of each type of root was measured by simple counting. Root length was measured, number of roots was counted, and lateral root density was determined by dividing lateral root number with root length. Error bars represent SD (n=12). Significance levels: *P<0.05, **P<0.01, ***P<0.001.
# In medium without any treatment, newly grown crown and lateral roots were more abundant in Tainung 67 transgenic lines than in WT (FIG. 12(A)). […] In the presence of NPA, growth of all types of roots was inhibited (FIG. 12(C)).
# [1] = system: leaves and roots in transgenic rice; experiment: GUS activity in leaves and roots of stably transformed transgenic rice; type: in vivo; settings: 10-day-old T2 seedlings, 10 μM ABA for 16 h, compared among all constructs
# Procedure: as §1
# All ABRC321:GUS constructs were also used for rice stable transformation.
# [2] = 0.2 μM ABA plus 1 μM NPA, 11 days
molecule,measurement,setting,value
"1xABRC321: synthetic ABA-inducible promoter, one copy of ABRC321 (CE3, A2, CE1 elements) fused upstream of Amy64 minimal promoter and GUS (DNA GGTACCGCAACGCGTGTCCTCCCTACGTGGCGGCTCGAGATTGCCACCGGTCTAGA; synthetic promoter element in GUS reporter construct, further chemistry not given here)",induction of GUS activity by ABA,rice half seeds,19 fold
"CC1=CC(=O)CC(C)(C)[C@@]1(O)/C=C/C(C)=C\C(=O)O [ABA, abscisic acid]",expression of several PIN genes,PIN genes,up-regulated
same,root length and lateral root density,"Tainung 67 seedlings; ABA concentration of 0.1 μM, 14 days",significantly increased
same,root density,"Tainung 67 seedlings; ABA concentrations higher than 0.5 M, 14 days",decreased
same,lateral root morphology,"Tainung 67 seedlings; ABA concentrations, 14 days",shorter and thicker
"O=C(O)c1ccccc1C(=O)Nc1cccc2ccccc12 [NPA, N-(1-naphthyl) phtalamic acid]",growth of crown roots and lateral roots,Tainung 67 seedlings; [2],also inhibited
same,growth of seminal roots,Tainung 67 seedlings; [2],continued to grow
same,growth of all types of roots,"Tainung 67 seedlings; 1 μM NPA only, 11 days, WT and transgenic lines",inhibited
B1,ABA induction of GUS activity in leaves and roots,[1],most highly induced by ABA among all constructs
same,induction of GUS activity by ABA,rice half seeds,33 fold
B2,induction of GUS activity by ABA,rice half seeds,20 fold

# From US10266838B2, “Methods for enhancing root growth of plants” (Academia Sinica, priority 2013, dated 2019)
